Test: Agonist activity at ER in human MCF7:WS8 cells assessed as increase in cell growth by measuring DNA level after 7 days by fluorescence analysis

CN(C)CCOc1ccc2c(c1)CCCC(c1ccccc1)=C2c1ccc(O)cc1 and CNCCOc1ccc2c(c1)CCCC(c1ccccc1)=C2c1ccc(O)cc1 are within 1.5-fold of each other in EC50: 15 nM for the first, 20 nM for the second.

Compared with CCOc1ccc2c(c1)CCCC(c1ccccc1)=C2c1ccc(O)cc1, CCOc1ccc(C2=C(c3ccccc3)CCCc3cc(O)ccc32)cc1 is 9-fold lower in EC50: 2.7 nM for the first, 0.3 nM for the second.

Compared with COc1ccc(C2=C(c3ccccc3)CCCc3cc(O)ccc32)cc1, COc1ccc2c(c1)CCCC(c1ccccc1)=C2c1ccc(O)cc1 is 13-fold higher in EC50: 0.3 nM for the first, 4 nM for the second. The first is the more potent here.

Going from CCC(=C(c1ccc(O)cc1)c1ccc(O)cc1)c1ccccc1 [1,1-bis(4,4'-hydroxyphenyl)-2-phenylbut-1-ene] to CCC(=C(c1ccc(O)cc1)c1ccc(O)cc1)c1ccc(O)cc1, the EC50 rises from 0.015 nM to 0.15 nM (10-fold).

Test: Antagonist activity at ER in human MCF7:WS8 cells assessed as inhibition of estradiol-induced cell growth by measuring DNA level after 7 days by fluorescence analysis

CNCCOc1ccc(C2=C(c3ccccc3)CCCc3cc(O)ccc32)cc1 and CCOc1ccc2c(c1)CCCC(c1ccccc1)=C2c1ccc(OCCN(C)C)cc1 are the same in IC50: 3 nM for the first, 3 nM for the second.
